Values of other authors as cited in US9260379B2 (Ocera Therapeutics, Inc., priority 2010, dated 2016).

Details: free acid

In the case of O=C(O)Cc1ccccc1 [phenyl acetic acid], the pKa is given as ~4.28.
